Test results published in patent publication US20060165687A1, “Vaccine adjuvant” (DUKE UNIVERSITY, priority 2004, published 2006).

Tests used:
[1] = tested on: Foxp3+, CD25+, CD4+ T-regulatory cells; assay: T-regulatory recovery after depletion and treatment with TLR-ligands; settings: for effect on thymopoeisis (suggested by day 10 spike in percent thymic T-reg): after T-regulatory depletion; for induction of T-regulatory recovery in the thymus and spleen: conclusion
[2] = tested on: T regulatory phenotype cells; parameters: species or system non-human primate; settings: in vivo

Row | Molecule | effect on thymopoeisis (suggested by day 10 spike in percent thymic T-reg) [1] | induction of T-regulatory recovery in the thymus and spleen [1] | T-regulatory recovery in the thymus ([1]; day 10, summary) | percent Foxp3+, CD25+, CD4+ splenocytes versus untreated mice ([1]; day 17, T-reg depleted mice) | T-regulatory recovery in the spleen ([1]; day 17, summary) | percent Foxp3+, CD25+, CD4+ splenocytes versus untreated mice ([1]; day 10, T-reg depleted mice) | T-regulatory recovery in the spleen ([1]; day 10, summary) | T-reg recovery in the thymus ([1]; day 17, summary) | time of maximum depletion of % and number of T regulatory phenotype cells [2] [weeks] | time until which depletion lasted [2] [weeks]
1 | C=CCn1c(=O)n([C@@H]2O[C@H](CO)[C@@H](O)[C@H]2O)c2nc(N)[nH]c(=O)c21 [TLR-7 ligand, loxoribine] | have an effect on thymopoeisis | able to induce T-regulatory recovery | accelerated | significantly increased levels | accelerated |  |  |  |  | 
2 | Poly (I:C) [TLR-3 ligand] | have an effect on thymopoeisis | able to induce T-regulatory recovery |  | significantly increased levels | accelerated | significantly higher levels | accelerated | greater |  | 
3 | flagellin [TLR-5 ligand] | no effect |  |  |  |  |  |  |  |  | 
4 | daclizumab (antibody, chains of the INN, looked up, V domains shown) VH: QVQLVQSGAEVKKPGSSVKVSCKASGYTFTSYRMHWVRQAPGQGLEWIGYINPSTGYTEYNQKFKDKATITADESTNTAYMELSSLRSEDTAVYYCARGGGVFDYWGQGTLVTVSS VL: DIQMTQSPSTLSASVGDRVTITCSASSSISYMHWYQQKPGKAPKLLIYTTSNLASGVPARFSGSGSGTEFTLTISSLQPDDFATYYCHQRSTYPLTFGQGTKVEVK |  |  |  |  |  |  |  |  | 2 | 4
